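The concentration for 50% growth inhibition is given as GI50. TGI: total growth inhibition.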
Key:
Experiment in all cases: DTP human tumour cell line panel, 384-well format
786-0 renal = test system: 786-0 renal
A549 NSCLC = test system: A549 NSCLC
ACHN renal = test system: ACHN renal
BT-549 breast = test system: BT-549 breast
CAKI-1 renal = test system: CAKI-1 renal
CCRF-CEM leukemia = test system: CCRF-CEM leukemia
DU-145 prostate = test system: DU-145 prostate
HCT-116 colon = test system: HCT-116 colon
HCT-15 colon = test system: HCT-15 colon
HL-60(TB) leukemia = test system: HL-60(TB) leukemia
HOP-62 NSCLC = test system: HOP-62 NSCLC
HOP-92 NSCLC = test system: HOP-92 NSCLC
HT29 colon = test system: HT29 colon
K-562 leukemia = test system: K-562 leukemia
LOX IMVI melanoma = test system: LOX IMVI melanoma
M14 melanoma = test system: M14 melanoma
MALME-3M melanoma = test system: MALME-3M melanoma
MCF7 breast = test system: MCF7 breast
MDA-MB-231 breast = test system: MDA-MB-231 breast
MDA-MB-468 breast = test system: MDA-MB-468 breast
MOLT-4 leukemia = test system: MOLT-4 leukemia
NCI-H23 lung = test system: NCI-H23 lung
NCI-H522 lung = test system: NCI-H522 lung
NCI/ADR-RES ovarian = test system: NCI/ADR-RES ovarian
OVCAR-3 ovarian = test system: OVCAR-3 ovarian
OVCAR-5 ovarian = test system: OVCAR-5 ovarian
OVCAR-8 ovarian = test system: OVCAR-8 ovarian
RPMI-8226 leukemia = test system: RPMI-8226 leukemia
RXF 393 renal = test system: RXF 393 renal
SF-268 CNS = test system: SF-268 CNS
SF-295 CNS = test system: SF-295 CNS
SF-539 CNS = test system: SF-539 CNS
SK-MEL-28 melanoma = test system: SK-MEL-28 melanoma
SK-OV-3 ovarian = test system: SK-OV-3 ovarian
SN12C renal = test system: SN12C renal
SNB-19 CNS = test system: SNB-19 CNS
SNB-75 CNS = test system: SNB-75 CNS
SW-620 colon = test system: SW-620 colon
T-47D breast = test system: T-47D breast
U251 glioblastoma = test system: U251 glioblastoma
UACC-62 melanoma = test system: UACC-62 melanoma
UO-31 renal = test system: UO-31 renal

SMILES: O=C(O)CCCc1ccc(N(CCCl)CCCl)cc1
- GI50 ([…]-0 renal): 24.3 µM
- GI50 (A549 NSCLC): 33.3 µM
- GI50 (ACHN renal): 8.31 µM
- TGI (ACHN renal): 35 µM
- GI50 (BT-549 breast): 14.1 µM
- GI50 (CAKI-1 renal): 8.78 µM
- GI50 (CCRF-CEM leukemia): 3.29 µM
- TGI (CCRF-CEM leukemia): 8.55 µM
- GI50 (DU-145 prostate): 27.3 µM
- TGI (DU-145 prostate): 99.4 µM
- GI50 (HCT-116 colon): 28.4 µM
- GI50 (HCT-15 colon): 23.7 µM
- GI50 (HL-60(TB) leukemia): 1.64 µM
- TGI (HL-60(TB) leukemia): 3.75 µM
- GI50 (HOP-62 NSCLC): 13.6 µM
- TGI (HOP-62 NSCLC): 45.8 µM
- GI50 (HOP-92 NSCLC): 25.3 µM
- GI50 (HT29 colon): 51.9 µM
- GI50 (K-562 leukemia): 41.6 µM
- GI50 (LOX IMVI melanoma): 30.4 µM
- GI50 (M14 melanoma): 19.5 µM
- GI50 (MALME-3M melanoma): 29.9 µM
- GI50 (MCF7 breast): 41 µM
- GI50 (MDA-MB-231 breast): 84.7 µM
- GI50 (MDA-MB-468 breast): 4.37 µM
- TGI (MDA-MB-468 breast): 21.4 µM
- GI50 (MOLT-4 leukemia): 1.26 µM
- TGI (MOLT-4 leukemia): 2.52 µM
- GI50 (NCI-H23 lung): 19.4 µM
- TGI (NCI-H23 lung): 99.8 µM
- GI50 (NCI-H522 lung): 13.3 µM
- TGI (NCI-H522 lung): 27.5 µM
- GI50 (NCI/ADR-RES ovarian): 19.9 µM
- GI50 (OVCAR-3 ovarian): 28.4 µM
- GI50 (OVCAR-5 ovarian): 45.7 µM
- GI50 (OVCAR-8 ovarian): 14.2 µM
- GI50 (RPMI-8226 leukemia): 6.45 µM
- TGI (RPMI-8226 leukemia): 23.6 µM
- GI50 (RXF 393 renal): 14.7 µM
- TGI (RXF 393 renal): 29.8 µM
- GI50 (SF-268 CNS): 9.3 µM
- GI50 (SF-295 CNS): 18.3 µM
- TGI (SF-295 CNS): 41.8 µM
- GI50 (SF-539 CNS): 16.7 µM
- TGI (SF-539 CNS): 60 µM
- GI50 (SK-MEL-28 melanoma): 57 µM
- GI50 (SK-OV-3 ovarian): 41.1 µM
- GI50 (SN12C renal): 10.4 µM
- GI50 (SNB-19 CNS): 35.3 µM
- GI50 (SNB-75 CNS): 19.8 µM
- GI50 (SW-620 colon): 16.9 µM
- GI50 (T-47D breast): 36 µM
- GI50 (U251 glioblastoma): 11.6 µM
- GI50 (UACC-62 melanoma): 12 µM
- GI50 (UO-31 renal): 39.8 µM
